In US20080058890A1, “HOMOTOPIC CO[…] THE BRAIN STEM […] A SUBJECT” (The Penn State Research Foundation, priority 2006, published 2008):

Tested on: NMDA receptor
Conditions: NMB rat; CPP 2.5 mg total i.v. (1.25 mg/ml x 0.2 ml/min x 10 min) infused before tetanus; ERs hours 7-16 post-tetanus vs control

For `O=C(O)C1CN(CCCP(=O)(O)O)CCN1` (stereo not shown) [CPP, 3-(2-Carboxypiperazin-4-yl)-propyl-1-phosphoric acid], the “effect of a A+C-fiber tetanus on the A-fiber ERs (NTS evoked responses)” value was “blocked the effect of a A+C-fiber tetanus on the A-fiber ERs”.
